We go through 2 compounds from BindingDB's records for doi:10.1021/acs.jmedchem.7b00141 (National Institute of Diabetes and Digestive and Kidney …, 2017).

In assay [1] the target is T1, Sodium-dependent serotonin transporter (Homo sapiens, UniProt P31645). The assay can be described thus: Inhibition of [3H]mazindol binding to recombinant human SERT expressed in HEK293 cell membranes preincubated for 10 mins followed by radioligand addition measured after 90 mins by micro beta scintillation counting analysis.
In assay [2] the target is T1, Sodium-dependent serotonin transporter. The assay can be described thus: Inhibition of [125I]RTI-55 binding to recombinant human SERT expressed in HEK293 cell membranes preincubated for 10 mins followed by radioligand addition measured after 90 mins by micro beta scintillation counting analysis.
The target of assay [3] is Sodium-dependent noradrenaline transporter (Homo sapiens, UniProt P23975). As to the kind of experiment: ChEBML_1661745. The procedure:
Inhibition of [3H]mazindol binding to recombinant human NET expressed in HEK293 cell membranes preincubated for 10 mins followed by radioligand addition measured after 90 mins by micro beta scintillation counting analysis

T1 sequence (P31645 whole entry): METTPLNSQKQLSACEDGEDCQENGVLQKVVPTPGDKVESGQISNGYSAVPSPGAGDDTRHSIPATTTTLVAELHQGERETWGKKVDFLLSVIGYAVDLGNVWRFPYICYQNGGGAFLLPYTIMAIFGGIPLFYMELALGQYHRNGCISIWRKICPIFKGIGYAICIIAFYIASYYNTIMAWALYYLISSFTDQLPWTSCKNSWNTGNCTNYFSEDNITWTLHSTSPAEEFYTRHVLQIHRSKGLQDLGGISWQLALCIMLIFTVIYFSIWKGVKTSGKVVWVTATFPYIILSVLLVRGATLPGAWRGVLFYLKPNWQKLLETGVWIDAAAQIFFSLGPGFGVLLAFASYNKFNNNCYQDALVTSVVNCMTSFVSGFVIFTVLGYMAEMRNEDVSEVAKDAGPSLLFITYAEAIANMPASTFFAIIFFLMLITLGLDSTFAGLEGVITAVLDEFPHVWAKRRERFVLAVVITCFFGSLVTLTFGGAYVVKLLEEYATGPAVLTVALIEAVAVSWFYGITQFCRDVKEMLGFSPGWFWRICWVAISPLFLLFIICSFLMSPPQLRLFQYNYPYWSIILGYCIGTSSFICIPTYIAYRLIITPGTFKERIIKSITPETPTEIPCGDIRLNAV
Chain of Sodium-dependent noradrenaline transporter (P23975 whole entry): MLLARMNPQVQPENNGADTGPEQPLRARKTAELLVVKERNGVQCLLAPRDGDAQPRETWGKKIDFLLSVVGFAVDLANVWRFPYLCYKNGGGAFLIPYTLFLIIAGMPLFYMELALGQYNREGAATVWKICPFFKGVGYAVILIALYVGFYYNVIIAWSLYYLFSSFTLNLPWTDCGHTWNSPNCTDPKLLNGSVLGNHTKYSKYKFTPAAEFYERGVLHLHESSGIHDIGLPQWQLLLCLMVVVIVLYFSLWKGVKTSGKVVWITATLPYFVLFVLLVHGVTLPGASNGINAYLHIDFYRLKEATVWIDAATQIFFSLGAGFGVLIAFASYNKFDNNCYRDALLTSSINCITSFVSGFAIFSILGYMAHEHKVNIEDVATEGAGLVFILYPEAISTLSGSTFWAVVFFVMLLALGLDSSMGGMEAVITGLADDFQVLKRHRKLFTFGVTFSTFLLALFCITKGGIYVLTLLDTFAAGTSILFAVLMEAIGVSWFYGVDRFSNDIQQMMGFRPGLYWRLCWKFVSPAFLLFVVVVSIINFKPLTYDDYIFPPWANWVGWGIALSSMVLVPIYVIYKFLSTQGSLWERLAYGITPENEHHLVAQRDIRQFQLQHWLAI

As usually defined, the Ki is the equilibrium dissociation constant of an inhibitor or competing ligand from its target. Regarding `O[C@]1(c2ccc(Cl)cc2)c2ccccc2C2=NCCN21` [Mazanor], the Ki in assay [1] worked out at 45 nM; in assay [2], 136 nM.

With `COC(=O)[C@H]1[C@@H](c2ccc([125I])cc2)CC2CC[C@H]1N2C`, the Ki in assay [3] worked out at 70 nM; in assay [1] it was 1.3 nM.
